In paper PMC7708037, “Targeting OGG1 arrests cancer cell proliferation by inducing replication stress” (Nucleic Acids Research, 2020):

What was measured:
A3 cells [1] = assay: A3 cell numbers and viability; assay type: cell-based, human
Procedure: Figure 4. Anticancer properties overlap between OGG1 loss and OGG1 inhibitors. (A) Viability of T-cell acute […] leukemia cell lines treated for 5 days with the indicated doses TH5487. Data are average ±SD of independent experiments (A3, n = 5; Jurkat, n = 3; MOLT-4, n = 4; CCRF-CEM, n = 3). (B) Relative cell numbers and (C) viability (%) for A3 cells treated for 5 days with 10 μM TH5487. Data are average ±SD of six replicates from three independent experiments. (D) Induction of apoptosis in A3 cells treated for 72 h TH5487 and stained for Annexin V. Data are average ±SD of three independent experiments. (E) A3 cells transfected with shRNA targeting OGG1 were treated with doxycycline for 6 days and stained for Annexin V. Data are average ±SD of two independent experiments. (F) Scheme for recovery experiment in which A3 OGG1-shRNA cells or A3 cells were silenced or inhibited for 6 days with doxycycline (200 nM) or TH5487 (10 μM). […] Data are average ±SD of 2–6 technical replicates representative of two independent experiments (I). Scheme for off-target effect evaluation in which A3 OGG1-shRNA cells were exposed to doxycycline for six days and after that, cells were exposed to TH5487 (10 μM) for 48 h followed by measurements of cell numbers (J) and viability by trypan blue exclusion (K). Data are average ±SD of two technical replicates from four independent experiments. Statistical significance was determined using unpaired, two-sided t-tests (*P < 0.05, **P < 0.01, ***P < 0.001, ****P < 0.0001, ns, non-significant).

A3 cells [2] = assay: Annexin V-staining (apoptosis); assay type: cell-based, human; conditions: 72 h
Procedure: The annexin V staining experiment was performed using BD Pharmingen FITC Annexin V Apoptosis Detection Kit I (cat.no 556547) according to the protocol given in the kit. Cells were washed with ice-cold PBS and then washed with 1X Annexin buffer diluted in ice-cold PBS. To the washed pellet of cells, PI and FITC Annexin V dye was added and incubated at room temperature in dark for 15 mins. After the incubation, 400 µl of annexin buffer was added and run in Navios flow cytometer (Beckman Coulter) to detect the apoptosis with blue laser(488 nm, filter 525/40 nm) and dead cells with blue laser(488 nm, filter 620/30 nm). Kaluza Flow Analysis (Beckman Coulter) was used for data analysis.
Figure 4. Anticancer properties overlap between OGG1 loss and OGG1 inhibitors. (A) Viability of T-cell acute […] leukemia cell lines treated for 5 days with the indicated doses TH5487. Data are average ±SD of independent experiments (A3, n = 5; Jurkat, n = 3; MOLT-4, n = 4; CCRF-CEM, n = 3). (B) Relative cell numbers and (C) viability (%) for A3 cells treated for 5 days with 10 μM TH5487. Data are average ±SD of six replicates from three independent experiments. […] Statistical significance was determined using unpaired, two-sided t-tests (*P < 0.05, **P < 0.01, ***P < 0.001, ****P < 0.0001, ns, non-significant).

A3 xenograft tumors = assay: Mouse xenograft experiment; assay type: in vivo; conditions: A3 subcutaneous tumors in NOD-SCID mice, oral 20 mg/kg, increased to 40 mg/kg
Procedure: Animal experiments were conducted as per the European directive, ethical guideline and regulations of the regional animal ethical committee Stockholm 2010/63 (N8914). Upon arrival to animal facility, animals were acclimatized in the animal house for a week with ad lib food and water, with a 12 h light cycle and the temperature and humidity set according to laboratory animal guidelines and regulations. For the xenograft experiment involving inducible shRNA, 1 × 10^7 non-targeting luciferase transfected A3 cells in 50% matrigel in PBS were injected into flank region of BALB/c nude mice. Later, mice from non-targeting and shRNA groups were randomly divided into two groups containing eight mice per group. […] Tumor volume was measured using calipers (length × 0.52 × width × width) and bioluminescence images were taken using an IVIS spectrum in vivo imaging system (Perkin-Elmer) after intraperitoneal injection of D-luciferin (150 mg/kg in PBS). […] Following lysis by three freeze-thaw cycles, samples were centrifuged at 20 000 × g for 30 min, and OGG1 in the supernatant was detected by immunoblotting. […]
Figure 7. […] Tumors were excised following termination, and TH5487 target engagement was analyzed by cellular thermal shift assay, using an antibody specific for the human OGG1 protein. […]

Compound: O=C(Nc1ccc(I)cc1)N1CCC(n2c(=O)[nH]c3c(Br)cccc32)CC1 [TH5487]
- Recovery of proliferation after release into fresh medium (A3 cells [1]; A3 cells exposed for 6 days to 10 μM): able to divide normally
- Cell viability (A3 cells [1]; A3 cells, 10 μM, after 72 h): mild decrease in cell viability
- Proliferation (relative cell numbers) (A3 cells [1]; A3 cells, 10 μM, up to 72 h): slower proliferation
- Apoptosis (Annexin V-propidium iodide) (A3 cells [2]; 20 μM): more substantial
- Apoptosis (Annexin V-propidium iodide) (A3 cells [2]; 5 and 10 μM): slight but significant increase in apoptosis
- Xenograft growth inhibition (A3 xenograft tumors): not able to detect xenograft growth inhibition
